Reference: US9416128B2, “Fused heterocyclic compounds as ion channel modulators” (Gilead Sciences, Inc., priority 2013, dated 2016)
Like-named read-outs stand apart in the source and are kept apart here.

Assays:
[1] = target: wild-type human cardiac sodium channel, hNaV 1.5 (Peak INa) (Homo sapiens, UniProt Q14524); test: Peak INa screening assay (tonic block and use-dependent block); type: cell-based
Procedure: The assay uses an HEK293 (human embryonic kidney) cell line heterologously expressing the wild-type human cardiac sodium channel, hNaV 1.5, purchased from Millipore (Billerica, Mass.). No beta subunits were coexpressed with the Na channel alpha subunit. Cells are maintained with standard tissue culture procedures and stable channel expression is maintained with 400 μg/mL Geneticin in the culture medium. […] Currents are digitized at 25 kHz and low-pass filtered at 5 kHz and stored in the Sophion Bioscience Oracle database (Sophion Bioscience, Copenhagen, Denmark). Analysis is performed using QPatch Assay software and data are compiled in Excel 2010 (Microsoft, Seattle, Wash., U.S.A.). Compound stocks are routinely made by the Gilead Sample Bank in vials to 10 mM in dimethyl sulfoxide (DMSO). In some cases, when compounds are not soluble in DMSO, they are made in 100% ethanol. Stocks are sonicated as necessary. The extracellular solution for screening Late INa is composed of: 140 mM NaCl, 4 mM KCl, 1.8 mM CaCl2, 1 mM MgCl2, 10 mM HEPES and 10 mM Dextrose with pH adjusted to 7.35 using NaOH. The intracellular solution contains: 105 mM CsF, 20 mM CsCl, 10 NaF, 2 mM EGTA, 10 mM HEPES and 10 mM Dextrose with pH adjusted to 7.35 with CsOH. Compounds are diluted in extracellular solution using a MicroLab Nimbus (Hamilton Robotics, Reno, Nev.) to between 0.3 and 3 μM in glass vials and transferred to glass well plates before robotic addition to the cells. […] It is contemplated that the compounds of Formula I avoid significant block of peak INa. […] The intracellular solution used for the Peak INa assay is the same as outlined for the Late INa assay (see above). After establishing the whole cell recording configuration, channels were stimulated to open with low frequency (0.1 Hz) for so that the recording can be monitored and the extent to which the recording has stabilized can be assessed. The test compound is then applied at 1 or 3 μM was added 2 times at 60 second intervals. After the second compound addition, a 200 second wait period was imposed to allow for equilibration. Voltage protocols for TB and UDB are were performed in the absence and presence of compound and TB and UDB are calculated with respect to the compound free condition. Both TB and UDB were analyzed by incorporating rundown correction for the peak INa.

[2] = target: wild-type human cardiac sodium channel, hNaV 1.5 (Late INa) (Homo sapiens, UniProt Q14524); test: Late INa screening assay (whole cell patch clamp, QPatch, Tefluthrin-induced late current); type: cell-based; conditions: HEK293 hNaV1.5, 10 μM Tefluthrin; for inhibition at 1 µM: HEK293, % inhibition (percent block of late INa) at 1 uM, read-out: Nav1.5 Late INa 1 uM
Chain of wild-type human cardiac sodium channel, hNaV 1.5 (Late INa) (Q14524 whole entry): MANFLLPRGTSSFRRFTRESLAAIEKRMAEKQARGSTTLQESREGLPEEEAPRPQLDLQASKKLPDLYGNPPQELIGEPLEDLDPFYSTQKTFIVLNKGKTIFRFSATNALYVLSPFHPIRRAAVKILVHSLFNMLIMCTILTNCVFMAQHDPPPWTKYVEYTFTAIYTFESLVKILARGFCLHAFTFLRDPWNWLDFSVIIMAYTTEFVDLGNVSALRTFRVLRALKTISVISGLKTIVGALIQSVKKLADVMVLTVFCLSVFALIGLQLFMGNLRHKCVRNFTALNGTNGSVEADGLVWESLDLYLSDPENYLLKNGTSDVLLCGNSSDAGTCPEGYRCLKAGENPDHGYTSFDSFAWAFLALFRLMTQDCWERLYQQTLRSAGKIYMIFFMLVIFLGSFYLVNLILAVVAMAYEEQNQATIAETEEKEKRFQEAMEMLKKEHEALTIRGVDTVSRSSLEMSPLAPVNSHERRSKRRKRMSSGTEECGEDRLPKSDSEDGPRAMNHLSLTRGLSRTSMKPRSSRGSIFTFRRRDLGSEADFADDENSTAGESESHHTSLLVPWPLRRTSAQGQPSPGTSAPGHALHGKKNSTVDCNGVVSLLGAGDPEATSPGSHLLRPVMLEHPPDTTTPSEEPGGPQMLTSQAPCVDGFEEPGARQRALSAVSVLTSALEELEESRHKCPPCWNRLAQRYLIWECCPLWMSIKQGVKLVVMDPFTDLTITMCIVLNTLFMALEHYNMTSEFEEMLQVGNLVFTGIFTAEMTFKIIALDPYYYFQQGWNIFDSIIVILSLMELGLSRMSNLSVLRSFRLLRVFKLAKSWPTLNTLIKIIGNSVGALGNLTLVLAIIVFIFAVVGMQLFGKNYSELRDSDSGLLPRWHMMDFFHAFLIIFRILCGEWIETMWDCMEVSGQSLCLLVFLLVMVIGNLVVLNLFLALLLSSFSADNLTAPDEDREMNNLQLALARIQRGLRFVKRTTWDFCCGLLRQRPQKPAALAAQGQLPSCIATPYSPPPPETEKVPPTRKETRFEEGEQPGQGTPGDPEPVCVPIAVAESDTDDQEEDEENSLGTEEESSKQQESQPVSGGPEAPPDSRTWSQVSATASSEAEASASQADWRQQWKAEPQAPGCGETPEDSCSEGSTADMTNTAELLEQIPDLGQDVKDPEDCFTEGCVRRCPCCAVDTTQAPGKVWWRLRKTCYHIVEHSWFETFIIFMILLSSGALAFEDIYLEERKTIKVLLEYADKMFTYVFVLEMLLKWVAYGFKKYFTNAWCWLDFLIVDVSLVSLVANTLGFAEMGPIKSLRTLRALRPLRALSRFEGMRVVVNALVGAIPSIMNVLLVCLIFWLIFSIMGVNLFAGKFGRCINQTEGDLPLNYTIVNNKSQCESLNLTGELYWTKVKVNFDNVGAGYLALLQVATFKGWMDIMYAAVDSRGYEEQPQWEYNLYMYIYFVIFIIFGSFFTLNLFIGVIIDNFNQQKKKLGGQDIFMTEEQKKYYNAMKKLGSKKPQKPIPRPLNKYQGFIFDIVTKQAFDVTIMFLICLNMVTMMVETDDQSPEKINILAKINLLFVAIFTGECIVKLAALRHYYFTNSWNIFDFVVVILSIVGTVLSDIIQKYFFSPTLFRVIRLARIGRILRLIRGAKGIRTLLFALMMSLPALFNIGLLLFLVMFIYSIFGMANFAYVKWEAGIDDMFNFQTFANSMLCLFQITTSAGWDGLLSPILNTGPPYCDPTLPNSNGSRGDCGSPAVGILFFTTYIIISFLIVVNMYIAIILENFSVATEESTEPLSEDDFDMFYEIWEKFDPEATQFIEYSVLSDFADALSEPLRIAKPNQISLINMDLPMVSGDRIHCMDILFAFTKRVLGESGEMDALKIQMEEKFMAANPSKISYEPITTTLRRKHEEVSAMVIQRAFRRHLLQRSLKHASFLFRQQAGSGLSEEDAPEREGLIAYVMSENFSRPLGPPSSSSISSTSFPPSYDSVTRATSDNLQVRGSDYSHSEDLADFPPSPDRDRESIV
Procedure: The cardiac late sodium current (Late INa) and peak sodium current (Peak INa) assays are performed on an automated electrophysiology platform, QPatch 16X or QPatch HT (Sophion Bioscience, Copenhagen, Denmark) using the whole cell patch clamp technique to measure currents through the cell membrane. The assay uses an HEK293 (human embryonic kidney) cell line heterologously expressing the wild-type human cardiac sodium channel, hNaV 1.5, purchased from Millipore (Billerica, Mass.). No beta subunits were coexpressed with the Na channel alpha subunit. Cells are maintained with standard tissue culture procedures and stable channel expression is maintained with 400 μg/mL Geneticin in the culture medium. Experiments are carried out at 23-25° C.
For both the Late INa and Peak INa assays, series resistance compensation is set to 100% and series resistance and whole-cell compensation are performed automatically. Currents are digitized at 25 kHz and low-pass filtered at 5 kHz and stored in the Sophion Bioscience Oracle database (Sophion Bioscience, Copenhagen, Denmark). Analysis is performed using QPatch Assay software and data are compiled in Excel 2010 (Microsoft, Seattle, Wash., U.S.A.).
Compound stocks are routinely made by the Gilead Sample Bank in vials to 10 mM in dimethyl sulfoxide (DMSO). In some cases, when compounds are not soluble in DMSO, they are made in 100% ethanol. Stocks are sonicated as necessary. The extracellular solution for screening Late INa is composed of: 140 mM NaCl, 4 mM KCl, 1.8 mM CaCl2, 1 mM MgCl2, 10 mM HEPES and 10 mM Dextrose with pH adjusted to 7.35 using NaOH. The intracellular solution contains: 105 mM CsF, 20 mM CsCl, 10 NaF, 2 mM EGTA, 10 mM HEPES and 10 mM Dextrose with pH adjusted to 7.35 with CsOH. Compounds are diluted in extracellular solution using a MicroLab Nimbus (Hamilton Robotics, Reno, Nev.) to between 0.3 and 3 μM in glass vials and transferred to glass well plates before robotic addition to the cells. The 0 mM Na extracellular solution (0Na-ECF) used at the end of each experiment for the Late INa and Peak INa assays to measure baseline current contains: 140 Choline-Cl; 4 mM KCl, 1.8 mM CaCl2; 1 mM MgCl2; 10 mM HEPES and 10 mM Dextrose with pH was adjusted to 7.35 with CsOH.
For the Late INa assay, sodium channels are activated every 10 seconds (0.1 Hz) by depolarizing the cell membrane to −20 mV for 250 milliseconds (ms) from a holding potential of −120 mV.
Compounds were tested to determine their activity in blocking the late sodium current. Late INa was generated by adding 10 μM Tefluthrin (pyrethroid) to the extracellular solution. For the purposes of the screening, Late INa is defined as the mean current between 240 ms and 265 ms during the voltage step to −20 mV. After establishing the whole cell recording configuration, Late INa activator is added to each well 4 times over a 15 minute period so that the late component of the Na current reaches a stable value. Compounds were then added (typically at 0.3 or 1 μM), in the presence of the Late INa activator, with 3 additions over the course of 5 minutes. Measurements were made at the end of exposure to the third compound addition and values were normalized to the current level when all Na^+ was removed from the extracellular solution after two additions of 0Na-ECF.
Results are reported as percent block of late INa and results were analyzed by incorporating rundown correction for the Late INa.

[3] = % inhibition, use-dependent block of peak INa at 3 uM, 3 Hz, pulse 50, read-out: Nav1.5 Peak UDB 3 Hz 3 uM
[4] = read-out: Nav1.5 Peak TB 3 uM, % inhibition, tonic block of peak INa at 3 uM, 0.1 Hz, holding -100 mV

Chain of wild-type human cardiac sodium channel, hNaV 1.5 (Peak INa) (Q14524 whole entry): as above

| SMILES | inhibition at 3 µM [1, 3] [%] | inhibition at 3 µM [1, 4] [%] | inhibition at 1 µM [2] [%] | Nav1.5 Peak TB 3 uM ([1]; % inhibition, tonic block of peak INa at 3 uM, 0.1 Hz, holding -100 mV) [%] | Nav1.5 Peak UDB 3 Hz 3 uM ([1]; % inhibition, use-dependent block of peak INa at 3 uM, 3 Hz, pulse 50) [%] | Nav1.5 Late INa 1 uM ([2]; % inhibition (percent block of late INa) at 1 uM) [%] |
| --- | --- | --- | --- | --- | --- | --- |
| Cc1cnc(CN2Cc3cc(-c4ccc(C(F)(F)F)cc4C)ccc3OC2=O)nc1 [Example 43, 6-(2-methyl-4-(trifluoromethyl)phenyl)-3-((5-methylpyrimidin-2-yl)methyl)-3,4-dihydro-2H-benzo[e][1,3]oxazin-2-one] | < 5 | 19.2 | 37.9 | – | – | – |
| CC(C)Oc1cc(C(F)(F)F)ccc1-c1ccc2c(c1)CN(Cc1ncccn1)C(=O)O2 [Example 25, 6-(2-isopropoxy-4-(trifluoromethyl)phenyl)-3-(pyrimidin-2-ylmethyl)-3,4-dihydro-2H-benzo[e][1,3]oxazin-2-one] | < 5 | 29.7 | 54 | – | – | – |
| COc1cc(C(F)(F)F)ccc1-c1ccc2c(c1)CN(Cc1ncc(C)cn1)C(=O)O2 [Example 42, 6-(2-methoxy-4-(trifluoromethyl)phenyl)-3-((5-methylpyrimidin-2-yl)methyl)-3,4-dihydro-2H-benzo[e][1,3]oxazin-2-one] | < 5 | 12.7 | 42.7 | – | – | – |
| Cc1csc(CN2Cc3cc(-c4ccc(OC(F)(F)F)cc4F)ccc3OC2=O)n1 [Example 55, 6-(2-fluoro-4-(trifluoromethoxy)phenyl)-3-((4-methylthiazol-2-yl)methyl)-3,4-dihydro-2H-benzo[e][1,3]oxazin-2-one] | < 5 | 16.1 | 35.3 | – | – | – |
| Cc1ccnc(CN2Cc3cc(-c4ccc(C(F)(F)F)cc4)ccc3OC2=O)n1 [Example 30, 3-((4-methylpyrimidin-2-yl)methyl)-6-(4-(trifluoromethyl)phenyl)-3,4-dihydro-2H-benzo[e][1,3]oxazin-2-one] | 13.2 | 36.5 | 54.5 | – | – | – |
| COc1cc(OC(F)(F)F)ccc1-c1ccc2c(c1)CN(Cc1cccc(C)n1)C(=O)O2 [Example 46, 6-(2-methoxy-4-(trifluoromethoxy)phenyl)-3-((6-methylpyridin-2-yl)methyl)-3,4-dihydro-2H-benzo[e][1,3]oxazin-2-one] | < 5 | 34.7 | 51.3 | – | – | – |
| Cc1csc(CN2Cc3cc(-c4ccc(Cl)c(F)c4)ccc3OC2=O)n1 [Example 59, 6-(4-chloro-3-fluorophenyl)-3-((4-methylthiazol-2-yl)methyl)-3,4-dihydro-2H-benzo[e][1,3]oxazin-2-one] | < 5 | 13 | 50.3 | – | – | – |
| Cc1csc(CN2Cc3cc(-c4ccc(OC(F)(F)F)cc4Cl)ccc3OC2=O)n1 [Example 57, 6-(2-chloro-4-(trifluoromethoxy)phenyl)-3-((4-methylthiazol-2-yl)methyl)-3,4-dihydro-2H-benzo[e][1,3]oxazin-2-one] | < 5 | – | 34.1 | – | – | – |
| O=C1Oc2ccc(-c3ccc(C(F)(F)F)cc3)cc2CN1Cc1ccccn1 [Example 24, 3-(pyridin-2-ylmethyl)-6-(4-(trifluoromethyl)phenyl)-3,4-dihydro-2H-benzo[e][1,3]oxazin-2-one] | 5.9 | 28.5 | 55.8 | – | – | – |
| CCOc1cc(OC(F)(F)F)ccc1-c1ccc2c(c1)CN(Cc1ncccn1)C(=O)O2 [Example 40, 6-(2-ethoxy-4-(trifluoromethoxy)phenyl)-3-(pyrimidin-2-ylmethyl)-3,4-dihydro-2H-benzo[e][1,3]oxazin-2-one] | 10.2 | 22.4 | 49.4 | – | – | – |
| Cc1cccc(CN2Cc3cc(-c4ccc(OC(F)(F)F)cc4F)ccc3OC2=O)n1 [Example 47, 6-(2-fluoro-4-(trifluoromethoxy)phenyl)-3-((6-methylpyridin-2-yl)methyl)-3,4-dihydro-2H-benzo[e][1,3]oxazin-2-one] | < 5 | 44.3 | 52.8 | – | – | – |
| O=C1Oc2ccc(-c3ccc(OC(F)(F)F)cc3)cc2CN1Cc1ccccn1 [Example 20, 3-(pyridin-2-ylmethyl)-6-(4-(trifluoromethoxy)phenyl)-3,4-dihydro-2H-benzo[e][1,3]oxazin-2-one] | 5.1 | 32.8 | 53.7 | – | – | – |
| COc1cc(OC(F)(F)F)ccc1-c1ccc2c(c1)CN(Cc1ncccn1)C(=O)O2 [Example 1, 6-(2-methoxy-4-(trifluoromethoxy)phenyl)-3-(pyrimidin-2-ylmethyl)-3,4-dihydro-2H-benzo[e][1,3]oxazin-2-one] | 9.6 | 26.7 | – | – | – | – |
| O=C1Oc2ccc(-c3ccc(OC(F)(F)F)cc3F)cc2CN1Cc1ncccn1 [Example 7, 6-(2-fluoro-4-(trifluoromethoxy)phenyl)-3-(pyrimidin-2-ylmethyl)-3,4-dihydro-2H-benzo[e][1,3]oxazin-2-one] | < 5 | 14.9 | 42.3 | – | – | – |
| Cc1cccc(CN2Cc3cc(-c4ccc(C(F)(F)F)cc4F)ccc3OC2=O)n1 [Example 45, 6-(2-fluoro-4-(trifluoromethyl)phenyl)-3-((6-methylpyridin-2-yl)methyl)-3,4-dihydro-2H-benzo[e][1,3]oxazin-2-one] | < 5 | 33.5 | 53.6 | – | – | – |
| COc1cc(OC(F)(F)F)ccc1-c1ccc2c(c1)CN(Cc1ncccn1)C(=O)O2 [Example 9, 6-(2-methoxy-4-(trifluoromethoxy)phenyl)-3-(pyrimidin-2-ylmethyl)-3,4-dihydro-2H-benzo[e][1,3]oxazin-2-one] | – | – | – | 18.9 | <5 | 45.0 |
